According to ChEMBL document CHEMBL3885881, “DrugMatrix”:

Organism: Rattus norvegicus
Assay: DrugMatrix - Regimen: Daily Repeat
Format: toxicity, organism-based, Sprague-Dawley
Set-up: regimen Daily Repeat, gender Male, age 6-8 weeks
Settings: in vivo, po, route oral GAVAGE, vehicle .5 % CMC; for ABSOLUTE BASOPHIL / ABSOLUTE EOSINOPHIL / ABSOLUTE LYMPHOCYTE / ABSOLUTE MONOCYTE / ABSOLUTE SEGMENTED NEUTROPHIL / BASOPHIL / EOSINOPHIL / ERYTHROCYTE COUNT / HEMATOCRIT / HEMOGLOBIN / LEUKOCYTE COUNT / LYMPHOCYTE / MEAN CORPUSCULAR HEMOGLOBIN / MEAN CORPUSCULAR HEMOGLOBIN CONCENTRATION / MONOCYTE / NEUTROPHIL / NUCLEATED RED BLOOD CELLS / PLATELET COUNT: tissue Blood; for ALANINE AMINOTRANSFERASE / ALBUMIN / ALKALINE PHOSPHATASE / ASPARTATE AMINOTRANSFERASE / BLOOD UREA NITROGEN / CARBON DIOXIDE / CHLORIDE / CHOLESTEROL / CREATINE PHOSPHOKINASE / CREATININE / GLUCOSE / LACTATE DEHYDROGENASE / LIPASE / PHOSPHORUS / POTASSIUM / SODIUM / TOTAL BILIRUBIN / TOTAL PROTEIN / URIC ACID: tissue Plasma
[1] = 0 mg/kg, 72 h, dose level Control, time 3 day
[2] = 0 mg/kg, 120 h, dose level Control, time 5 day
[3] = 1100 mg/kg, 72 h, dose level High, time 3 day
[4] = 1100 mg/kg, 120 h, dose level High, time 5 day

C[C@H]1[C@H](NC(=O)/C(=N\OC(C)(C)C(=O)O)c2csc(N)n2)C(=O)N1S(=O)(=O)O [AZTREONAM]
ABSOLUTE BASOPHIL [1]: 0 CELLS/uL
ABSOLUTE EOSINOPHIL [1]: 222.83 CELLS/uL
ABSOLUTE LYMPHOCYTE [1]: 14453 CELLS/uL
ABSOLUTE MONOCYTE [1]: 0 CELLS/uL
ABSOLUTE SEGMENTED NEUTROPHIL [1]: 1490.83 CELLS/uL
BASOPHIL [1]: 0%
EOSINOPHIL [1]: 1.33%
ERYTHROCYTE COUNT [1]: 5.76 x10E6/uL
HEMATOCRIT [1]: 36.52%
HEMOGLOBIN [1]: 13.45 G/DL
LEUKOCYTE COUNT [1]: 16.17 x10E3/uL
LYMPHOCYTE [1]: 89.33%
MEAN CORPUSCULAR HEMOGLOBIN [1]: 23.37 pg
MEAN CORPUSCULAR HEMOGLOBIN CONCENTRATION [1]: 36.85 G/DL
MONOCYTE [1]: 0%
NEUTROPHIL [1]: 9.33%
NUCLEATED RED BLOOD CELLS [1]: 0 /100WBC
PLATELET COUNT [1]: 1239.5 x10E3/uL
ALANINE AMINOTRANSFERASE [1]: 43.83 u/L
ALBUMIN [1]: 4.27 G/DL
ALKALINE PHOSPHATASE [1]: 398.83 u/L
ASPARTATE AMINOTRANSFERASE [1]: 81.17 u/L
BLOOD UREA NITROGEN [1]: 17.67 mg/dL
CARBON DIOXIDE [1]: 27.5 mmol/L
CHLORIDE [1]: 99.17 MEQ/L
CHOLESTEROL [1]: 74 mg/dL
CREATINE PHOSPHOKINASE [1]: 331.5 u/L
CREATININE [1]: 0.2 mg/dL
GLUCOSE [1]: 171.33 mg/dL
LACTATE DEHYDROGENASE [1]: 241.67 u/L
LIPASE [1]: 9.5 u/L
PHOSPHORUS [1]: 12.25 mg/dL
POTASSIUM [1]: 6.33 MEQ/L
SODIUM [1]: 141.28 MEQ/L
TOTAL BILIRUBIN [1]: 0.15 mg/dL
TOTAL PROTEIN [1]: 5.98 G/DL
URIC ACID [1]: 1.63 mg/dL
ABSOLUTE BASOPHIL [2]: 0 CELLS/uL
ABSOLUTE EOSINOPHIL [2]: 148.67 CELLS/uL
ABSOLUTE LYMPHOCYTE [2]: 16020.5 CELLS/uL
ABSOLUTE MONOCYTE [2]: 29.17 CELLS/uL
ABSOLUTE SEGMENTED NEUTROPHIL [2]: 1468.33 CELLS/uL
BASOPHIL [2]: 0%
EOSINOPHIL [2]: 1%
ERYTHROCYTE COUNT [2]: 5.78 x10E6/uL
HEMATOCRIT [2]: 35.77%
HEMOGLOBIN [2]: 13.4 G/DL
LEUKOCYTE COUNT [2]: 17.67 x10E3/uL
LYMPHOCYTE [2]: 90.5%
MEAN CORPUSCULAR HEMOGLOBIN [2]: 23.22 pg
MEAN CORPUSCULAR HEMOGLOBIN CONCENTRATION [2]: 37.47 G/DL
MONOCYTE [2]: 0.17%
NEUTROPHIL [2]: 8.33%
NUCLEATED RED BLOOD CELLS [2]: 0.17 /100WBC
PLATELET COUNT [2]: 1255.5 x10E3/uL
ALANINE AMINOTRANSFERASE [2]: 46.5 u/L
ALBUMIN [2]: 4.38 G/DL
ALKALINE PHOSPHATASE [2]: 336 u/L
ASPARTATE AMINOTRANSFERASE [2]: 76.5 u/L
BLOOD UREA NITROGEN [2]: 20 mg/dL
CARBON DIOXIDE [2]: 27.5 mmol/L
CHLORIDE [2]: 101 MEQ/L
CHOLESTEROL [2]: 71.33 mg/dL
CREATINE PHOSPHOKINASE [2]: 231.83 u/L
CREATININE [2]: 0.37 mg/dL
GLUCOSE [2]: 168.83 mg/dL
LACTATE DEHYDROGENASE [2]: 174 u/L
LIPASE [2]: 8.67 u/L
PHOSPHORUS [2]: 11.48 mg/dL
POTASSIUM [2]: 6.82 MEQ/L
SODIUM [2]: 143.8 MEQ/L
TOTAL BILIRUBIN [2]: 0.2 mg/dL
TOTAL PROTEIN [2]: 5.98 G/DL
URIC ACID [2]: 1.83 mg/dL
ABSOLUTE BASOPHIL [3]: 0 CELLS/uL
ABSOLUTE EOSINOPHIL [3]: 113.67 CELLS/uL
ABSOLUTE LYMPHOCYTE [3]: 10636 CELLS/uL
ABSOLUTE MONOCYTE [3]: 74.67 CELLS/uL
ABSOLUTE SEGMENTED NEUTROPHIL [3]: 842.33 CELLS/uL
BASOPHIL [3]: 0%
EOSINOPHIL [3]: 1%
ERYTHROCYTE COUNT [3]: 5.33 x10E6/uL
HEMATOCRIT [3]: 34.77%
HEMOGLOBIN [3]: 12.97 G/DL
LEUKOCYTE COUNT [3]: 11.67 x10E3/uL
LYMPHOCYTE [3]: 91%
MEAN CORPUSCULAR HEMOGLOBIN [3]: 24.4 pg
MEAN CORPUSCULAR HEMOGLOBIN CONCENTRATION [3]: 37.3 G/DL
MONOCYTE [3]: 0.67%
NEUTROPHIL [3]: 7.33%
NUCLEATED RED BLOOD CELLS [3]: 0 /100WBC
PLATELET COUNT [3]: 1394 x10E3/uL
ALANINE AMINOTRANSFERASE [3]: 52 u/L
ALBUMIN [3]: 4.03 G/DL
ALKALINE PHOSPHATASE [3]: 364.67 u/L
ASPARTATE AMINOTRANSFERASE [3]: 79 u/L
BLOOD UREA NITROGEN [3]: 16.33 mg/dL
CARBON DIOXIDE [3]: 27 mmol/L
CHLORIDE [3]: 100.33 MEQ/L
CHOLESTEROL [3]: 72 mg/dL
CREATINE PHOSPHOKINASE [3]: 274.33 u/L
CREATININE [3]: 0.18 mg/dL
GLUCOSE [3]: 167.67 mg/dL
LACTATE DEHYDROGENASE [3]: 74.33 u/L
LIPASE [3]: 8.67 u/L
PHOSPHORUS [3]: 11.13 mg/dL
POTASSIUM [3]: 5.8 MEQ/L
SODIUM [3]: 142.4 MEQ/L
TOTAL BILIRUBIN [3]: 0.17 mg/dL
TOTAL PROTEIN [3]: 5.53 G/DL
URIC ACID [3]: 1.6 mg/dL
ABSOLUTE BASOPHIL [4]: 0 CELLS/uL
ABSOLUTE EOSINOPHIL [4]: 309 CELLS/uL
ABSOLUTE LYMPHOCYTE [4]: 13777 CELLS/uL
ABSOLUTE MONOCYTE [4]: 0 CELLS/uL
ABSOLUTE SEGMENTED NEUTROPHIL [4]: 1914 CELLS/uL
BASOPHIL [4]: 0%
EOSINOPHIL [4]: 1.67%
ERYTHROCYTE COUNT [4]: 5.78 x10E6/uL
HEMATOCRIT [4]: 35.83%
HEMOGLOBIN [4]: 13.5 G/DL
LEUKOCYTE COUNT [4]: 16 x10E3/uL
LYMPHOCYTE [4]: 87%
MEAN CORPUSCULAR HEMOGLOBIN [4]: 23.37 pg
MEAN CORPUSCULAR HEMOGLOBIN CONCENTRATION [4]: 37.7 G/DL
MONOCYTE [4]: 0%
NEUTROPHIL [4]: 11.33%
NUCLEATED RED BLOOD CELLS [4]: 0.33 /100WBC
PLATELET COUNT [4]: 1184.33 x10E3/uL
ALANINE AMINOTRANSFERASE [4]: 47.67 u/L
ALBUMIN [4]: 4.5 G/DL
ALKALINE PHOSPHATASE [4]: 346 u/L
ASPARTATE AMINOTRANSFERASE [4]: 72 u/L
BLOOD UREA NITROGEN [4]: 16 mg/dL
CARBON DIOXIDE [4]: 27 mmol/L
CHLORIDE [4]: 102.33 MEQ/L
CHOLESTEROL [4]: 65 mg/dL
CREATINE PHOSPHOKINASE [4]: 183.33 u/L
CREATININE [4]: 0.2 mg/dL
GLUCOSE [4]: 176.67 mg/dL
LACTATE DEHYDROGENASE [4]: 90 u/L
LIPASE [4]: 9.33 u/L
PHOSPHORUS [4]: 11.4 mg/dL
POTASSIUM [4]: 6.11 MEQ/L
SODIUM [4]: 146.47 MEQ/L
TOTAL BILIRUBIN [4]: 0.13 mg/dL
TOTAL PROTEIN [4]: 6 G/DL
URIC ACID [4]: 1.7 mg/dL
